Measured values as given in ChEMBL document CHEMBL4840322, “Synthesis and biological evaluation of novel coumarin derivatives in rhabdoviral clearance” (Eur J Med Chem, 2021).
Calls of active or inactive are those of the source. The rule behind the calls is not given here.

Assays:
[1] = tested on: Infectious hematopoietic necrosis virus; assay: Inhibition of Infectious hematopoietic necrosis virus glycoprotein G assessed as antiviral activity at 25 uM measured by RT-qPCR method relative to control
[2] = tested on: Infectious hematopoietic necrosis virus; assay: Antiviral activity against Infectious hematopoietic necrosis virus infected in Fathead minnow EPC cells assessed as inhibition of G protein expression measured after 72 hrs by RT-qPCR method; assay type: functional, organism-based
[3] = tested on: Infectious hematopoietic necrosis virus; assay: Antiviral activity against Infectious hematopoietic necrosis virus infected in Fathead minnow EPC cells assessed as suppression of virus-induced cytopathic effect at 100 uM; assay type: functional, organism-based
[4] = tested on: Infectious hematopoietic necrosis virus; assay: Antiviral activity against Infectious hematopoietic necrosis virus infected in Fathead minnow EPC cells assessed as decrease in virus-induced apoptosis by measuring caspase-9 activity at 25 uM measured after 72 hrs by Caspase activity assay relative to control; assay type: functional; parameters: scale not given: the % may be the effect or the level left
[5] = tested on: Micropterus salmoides rhabdovirus; assay: Antiviral activity against micropterus salmoides rhabdo-virus infected in Grass carp GCO cells assessed as reduction of viral titre value measured after 48 to 96 hrs; assay type: functional, organism-based; conditions: time 48-96 hrs
Sprivivirus cyprinus [6] = assay: Antiviral activity against spring viremia of carp virus infected in Fathead minnow EPC cells assessed as reduction of viral titre value measured after 48 to 96 hrs; assay type: functional, organism-based; conditions: time 48-96 hrs
[7] = tested on: Infectious hematopoietic necrosis virus; assay: Antiviral activity against Infectious hematopoietic necrosis virus infected in Fathead minnow EPC cells assessed as inhibition of virus-cell recognition at 25 uM measured after 30 mins by RT-qPCR method; assay type: functional, organism-based
[8] = Induction of apoptosis in Fathead minnow EPC cells assessed as early apoptotic cells measured after 72 hrs by Annexin V/PI staining based flowcytometry method (reference value: 3.8%); assay type: functional, Pimephales promelas
[9] = tested on: Infectious hematopoietic necrosis virus; assay: Antiviral activity against Infectious hematopoietic necrosis virus infected in Fathead minnow EPC cells assessed as inhibition of phospho protein gene expression at 0.1 to 100 uM measured after 72 hrs by RT-qPCR method relative to control; assay type: functional; parameters: scale not given: the % may be the effect or the level left; conditions: dose 0.1-100 µM
[10] = tested on: Infectious hematopoietic necrosis virus; assay: Antiviral activity against Infectious hematopoietic necrosis virus infected in Fathead minnow EPC cells assessed as decrease in virus-induced apoptosis by measuring late apoptotic cells measured after 72 hrs by Annexin V/PI staining based flowcytometry method (reference value: 1.95%); assay type: functional; parameters: scale not given: the % may be the effect or the level left
[11] = tested on: Infectious hematopoietic necrosis virus; assay: Antiviral activity against Infectious hematopoietic necrosis virus infected in Fathead minnow EPC cells assessed as inhibition of nucleoprotein gene expression at 0.1 to 100 uM measured after 72 hrs by RT-qPCR method relative to control; assay type: functional; parameters: scale not given: the % may be the effect or the level left; conditions: dose 0.1-100 µM
[12] = tested on: Infectious hematopoietic necrosis virus; assay: Antiviral activity against Infectious hematopoietic necrosis virus infected in Fathead minnow EPC cells assessed as inhibition of matrix protein gene expression at 0.1 to 100 uM measured after 72 hrs by RT-qPCR method relative to control; assay type: functional; parameters: scale not given: the % may be the effect or the level left; conditions: dose 0.1-100 µM
[13] = tested on: Infectious hematopoietic necrosis virus; assay: Antiviral activity against Infectious hematopoietic necrosis virus infected in Fathead minnow EPC cells at 25 uM preincubated for 1 to 4 hrs followed by compound washout and infected to EPC cells and measured after 72 hrs by RT-qPCR assay; assay type: functional, organism-based; conditions: time 1-4 hrs
Sprivivirus cyprinus [14] = assay: Antiviral activity against spring viremia of carp virus infected in Fat head minnow EPC cells assessed as inhibition of N protein gene expression at 0.1 to 100 uM by RT-qPCR method relative to control; assay type: functional; parameters: scale not given: the % may be the effect or the level left; conditions: dose 0.1-100 µM
[15] = tested on: Infectious hematopoietic necrosis virus; assay: Antiviral activity against Infectious hematopoietic necrosis virus infected in Rainbow trout fish assessed as decrease of mortality rate ip measured after 4 days; assay type: functional, organism-based; conditions: time 4.0 day
[16] = tested on: Infectious hematopoietic necrosis virus; assay: Antiviral activity against Infectious hematopoietic necrosis virus infected in Fathead minnow EPC cells assessed as decrease in virus-induced apoptosis by measuring appearance of normal sized nuclei in cells at 100 uM measured after 72 hrs by Flowcytometry assay; assay type: functional, organism-based
[17] = tested on: Micropterus salmoides rhabdovirus; assay: Antiviral activity against micropterus salmoides rhabd-ovirus infected in Fat head minnow EPC cells assessed as inhibition of N protein gene expression at 0.1 to 100 uM by RT-qPCR method relative to control; assay type: functional; parameters: scale not given: the % may be the effect or the level left; conditions: dose 0.1-100 µM
[18] = tested on: Infectious hematopoietic necrosis virus; assay: Antiviral activity against Infectious hematopoietic necrosis virus infected in Fathead minnow EPC cells assessed as decrease in virus-induced apoptosis by measuring caspase-8 activity at 25 uM measured after 72 hrs by Caspase activity assay relative to control; assay type: functional; parameters: scale not given: the % may be the effect or the level left
[19] = tested on: Infectious hematopoietic necrosis virus; assay: Antiviral activity against Infectious hematopoietic necrosis virus infected in Fathead minnow EPC cells assessed as reduction of virus titre values at 0.25 to 25 uM measured after 72 to 96 hrs; assay type: functional, organism-based; conditions: dose 0.25-25 µM, time 72-96 hrs
[20] = Cytotoxicity against Grass carp GCO cells at 25 uM; assay type: cell-based; conditions: ctenopharyngodon idellus
[21] = tested on: Infectious hematopoietic necrosis virus; assay: Antiviral activity against Infectious hematopoietic necrosis virus infected in Fathead minnow EPC cells assessed as decrease in virus-induced apoptosis by measuring viable cells measured after 72 hrs by Annexin V/PI staining based flowcytometry method (reference value: 94%); assay type: functional
[22] = Induction of apoptosis in Fathead minnow EPC cells assessed as necrotic cells measured after 72 hrs by Annexin V/PI staining based flowcytometry method (reference value: 0.29%); assay type: functional, Pimephales promelas
[23] = tested on: Infectious hematopoietic necrosis virus; assay: Antiviral activity against Infectious hematopoietic necrosis virus infected in Fathead minnow EPC cells assessed as decrease in virus-induced apoptosis by measuring changes in cell morphology at 10 uM measured by ultrastructural analysis; assay type: functional, organism-based
[24] = tested on: Infectious hematopoietic necrosis virus; assay: Antiviral activity against Infectious hematopoietic necrosis virus infected in Rainbow trout fish assessed as decrease of viral proliferation in fish spleen ip measured after 4 days; assay type: functional, organism-based; conditions: time 4.0 day
[25] = tested on: Infectious hematopoietic necrosis virus; assay: Antiviral activity against Infectious hematopoietic necrosis virus infected in Fathead minnow EPC cells assessed as decrease in virus-induced apoptosis by measuring formation of few apoptotic bodies in cells at 100 uM measured after 72 hrs by Flowcytometry assay; assay type: functional, organism-based
[26] = tested on: Infectious hematopoietic necrosis virus; assay: Antiviral activity against Infectious hematopoietic necrosis virus infected in Fathead minnow EPC cells assessed as inhibition of polymerase protein gene expression at 0.1 to 100 uM measured after 72 hrs by RT-qPCR method relative to control; assay type: functional; parameters: scale not given: the % may be the effect or the level left; conditions: dose 0.1-100 µM
Sprivivirus cyprinus [27] = assay: Antiviral activity against spring viremia of carp virus infected in Fat head minnow EPC cells assessed as inhibition of N protein gene expression by RT-qPCR method relative to control; assay type: functional, organism-based
[28] = Induction of apoptosis in Fathead minnow EPC cells assessed as late apoptotic cells measured after 72 hrs by Annexin V/PI staining based flowcytometry method (reference value: 1.95%); assay type: functional, Pimephales promelas
[29] = tested on: Infectious hematopoietic necrosis virus; assay: Antiviral activity against Infectious hematopoietic necrosis virus infected in Rainbow trout fish assessed as decrease of viral proliferation in fish kidney ip measured after 4 days; assay type: functional, organism-based; conditions: time 4.0 day
[30] = tested on: Infectious hematopoietic necrosis virus; assay: Antiviral activity against Infectious hematopoietic necrosis virus infected in Fathead minnow EPC cells assessed as decrease in virus-induced apoptosis by measuring caspase-3 activity at 25 uM measured after 72 hrs by Caspase activity assay relative to control; assay type: functional; parameters: scale not given: the % may be the effect or the level left
[31] = Induction of apoptosis in Fathead minnow EPC cells assessed as viable cells measured after 72 hrs by Annexin V/PI staining based flowcytometry method (reference value: 94%); assay type: functional, Pimephales promelas
[32] = tested on: Infectious hematopoietic necrosis virus; assay: Antiviral activity against Infectious hematopoietic necrosis virus infected in Fathead minnow EPC cells assessed as decrease in virus-induced apoptosis by measuring early apoptotic cells measured after 72 hrs by Annexin V/PI staining based flowcytometry method (reference value: 3.8%); assay type: functional; parameters: scale not given: the % may be the effect or the level left
[33] = tested on: Infectious hematopoietic necrosis virus; assay: Antiviral activity against Infectious hematopoietic necrosis virus infected in Rainbow trout fish assessed as decrease of viral proliferation in fish brain ip measured after 4 days; assay type: functional, organism-based; conditions: time 4.0 day
[34] = tested on: Micropterus salmoides rhabdovirus; assay: Antiviral activity against micropterus salmoides rhabdo-virus infected in Fat head minnow EPC cells assessed as inhibition of N protein gene expression by RT-qPCR method relative to control; assay type: functional, organism-based
[35] = Cytotoxicity against Fathead minnow EPC cells at 25 uM; assay type: cell-based; conditions: pimephales promelas
[36] = tested on: Infectious hematopoietic necrosis virus; assay: Antiviral activity against Infectious hematopoietic necrosis virus infected in Fathead minnow EPC cells assessed as decrease in virus-induced apoptosis by measuring necrotic cells measured after 72 hrs by Annexin V/PI staining based flowcytometry method (reference value: 0.29%); assay type: functional; parameters: scale not given: the % may be the effect or the level left

Cc1cc(=O)oc2cc(OCCCCCCn3cncn3)ccc12
inhibition [1]: 25.2%

C=C(C)COc1ccc2ccc(=O)oc2c1
inhibition [1]: 14%

CCCCOc1cc(=O)oc2ccccc12
inhibition [1]: 14.5%

Cc1cn(CCCCCCOc2ccc3c(C)cc(=O)oc3c2)cn1
inhibition [1]: 65.1%

O=c1ccc2ccc(OCCCBr)cc2o1
inhibition [1]: -8.24%

O=c1ccc2ccc(OCCCCCCn3cncn3)cc2o1
inhibition [1]: 39.2%

O=c1ccc2ccc(OCCCn3cnc4ccccc43)cc2o1
inhibition [1]: 27.2%

CCCCOc1ccc2c(C)cc(=O)oc2c1
inhibition [1]: -4.37%

C=CCOc1cc(=O)oc2ccccc12
inhibition [1]: 2.46%

CCCOc1ccc2c(C)cc(=O)oc2c1
inhibition [1]: -1.75%

COc1ccc2ccc(=O)oc2c1
inhibition [1]: 10.8%

C=C(C)COc1ccc2c(C)cc(=O)oc2c1
inhibition [1]: 9.37%

O=c1ccc2ccc(OCCn3cnc4ccccc43)cc2o1
inhibition [1]: 5.58%

CCCOc1cc(=O)oc2ccccc12
inhibition [1]: 9.48%

CCCCOc1ccc2ccc(=O)oc2c1
inhibition [1]: 22%

Cc1cc(=O)oc2cc(OCCCCCCn3ccnc3)ccc12
IC50 [2]: 7.63 µM | inhibition [1]: 82.1%

O=c1ccc2ccc(OCCCCCCCCn3cnc4ccccc43)cc2o1
inhibition [1]: 46.1%

Cc1cc(=O)oc2cc(OCCCCCCn3ccnc3C)ccc12
IC50 [2]: 6.34 µM | inhibition [1]: 89.5%

C=C(C)COc1cc(=O)oc2ccccc12
inhibition [1]: 9.47%

O=c1ccc2ccc(OCCCCCCn3cnc4ccccc43)cc2o1
Activity [3]: Active | Activity [4]: 50% | Activity [5]: Active | Activity (Sprivivirus cyprinus [6]): Active | Activity [7]: inactive | Activity [8]: 2.35% | Activity [9]: >95% | Activity [10]: 2.55% | Activity [11]: >95% | Activity [12]: >95% | Activity [13]: inactive | Activity (Sprivivirus cyprinus [14]): 97.86% | Activity [15]: Active | Activity [16]: Active | Activity [17]: 99.08% | Activity [18]: 98% | Activity [19]: Active | Activity [20]: Non-Toxic | Activity [21]: 93.7% | Activity [22]: 0.4% | Activity [23]: Active | Activity [24]: Active | Activity [25]: Active | IC50 [2]: 2.96 µM | Activity [26]: >95% | IC50 (Sprivivirus cyprinus [27]): 1.68 µM | Activity [28]: 2.2% | Activity [29]: Active | Activity [30]: 383% | inhibition [1]: 99.2% | Activity [31]: 95.1% | Activity [32]: 3.47% | Activity [33]: Active | IC50 [34]: 2.12 µM | Activity [35]: Non-Toxic | Activity [36]: 0.26%

Cc1cc(=O)oc2cc(OCCCCCCBr)ccc12
inhibition [1]: -2.34%

O=c1ccc2ccc(OCCCCn3cnc4ccccc43)cc2o1
inhibition [1]: 35.1%

O=c1ccc2ccc(OCCCCBr)cc2o1
inhibition [1]: 2.59%

NC(=O)c1ncn([C@@H]2O[C@H](CO)[C@@H](O)[C@H]2O)n1
inhibition [1]: 99.1%

Nc1ccccc1SCCCCCCOc1ccc2ccc(=O)oc2c1
inhibition [1]: 49.3%

O=c1ccc2ccc(OCCBr)cc2o1
inhibition [1]: 0.13%

O=c1ccc2ccc(OCCCCCCN3CCCCC3)cc2o1
inhibition [1]: 5.32%

COc1ccc2c(C)cc(=O)oc2c1
inhibition [1]: 2.13%

C=CCOc1ccc2ccc(=O)oc2c1
inhibition [1]: -5.86%

Cc1cc(=O)oc2cc(OCCCCCCn3cnc4ccccc43)ccc12
IC50 [2]: 4.76 µM | inhibition [1]: 94.1%

CCCOc1ccc2ccc(=O)oc2c1
inhibition [1]: 5.73%

COc1cc(=O)oc2ccccc12
inhibition [1]: 19.5%

O=c1ccc2ccc(OCCCCCCSc3cccc(O)c3)cc2o1
inhibition [1]: 13.8%
